From US20080226596A1, “Therapeutic compositions and methods useful in treating hepatitis” (priority 2006, published 2008)

Experiments:
[1] = system: Jak2/Stat5 tyrosine phosphorylation; assay: IL-3-induced Jak2/Stat5 tyrosine phosphorylation in Baf3 cells; assay type: cell-based, murine
Experimental: For induction of cellular protein phosphorylation by sodium stibogluconate or pervanadate, Baf3 cells were incubated in 0.1% FCS-RPMI 1640 medium at 37° C. for 16 hours. The cells were then washed twice in RPMI 1640 medium and incubated with sodium stibogluconate or pervanandate (0.1 mM) for various times prior to termination by lysing cells in cold lysis buffer (50 mM Tris, pH 7.4; 150 mM NaCl; 0.2 mM Na3VO4; 20 mm NaF; 1% Nonidet P-40; 2 mM PMSF; 20 µg/ml of Aprotinin and 1 mM of sodium molybdic acid). To determine the effect of sodium stibogluconate or potassium antimonyl tartrate on IL-3-induced Jak/Stat phosphorylation, Baf3 cells were deprived of the growth factor for 16 hours in 0.1% FCS RPMI 1640 medium and then incubated with or without sodium stibogluconate or potassium antimonyl tartrate for 10 minutes. IL-3 was next added to the cell suspension and incubated for various times. The Cells were then harvested and lysed in cold lysis buffer at 4° C. for 45 minutes. Total cell lysates (TCL) were separated in SDS-PAGE gels, blotted onto nitrocellulose membrane (Schleicher & Schuell), probed with specific antibodies and detected using an enhanced chemiluminescence kit (ECL, Amersham, Arlington Heights, Ill.).

SHP-1 = molecular target: T1, SHP-1 (Mus musculus, UniProt P29351); assay: Reversibility of SHP-1 inhibition (washing of bead-bound GST/SHP-1); assay type: biochemical; conditions: pre-incubated 4° C. 30 minutes, washed 3 times
T1 construct: made in house
T1 sequence (P29351 whole entry): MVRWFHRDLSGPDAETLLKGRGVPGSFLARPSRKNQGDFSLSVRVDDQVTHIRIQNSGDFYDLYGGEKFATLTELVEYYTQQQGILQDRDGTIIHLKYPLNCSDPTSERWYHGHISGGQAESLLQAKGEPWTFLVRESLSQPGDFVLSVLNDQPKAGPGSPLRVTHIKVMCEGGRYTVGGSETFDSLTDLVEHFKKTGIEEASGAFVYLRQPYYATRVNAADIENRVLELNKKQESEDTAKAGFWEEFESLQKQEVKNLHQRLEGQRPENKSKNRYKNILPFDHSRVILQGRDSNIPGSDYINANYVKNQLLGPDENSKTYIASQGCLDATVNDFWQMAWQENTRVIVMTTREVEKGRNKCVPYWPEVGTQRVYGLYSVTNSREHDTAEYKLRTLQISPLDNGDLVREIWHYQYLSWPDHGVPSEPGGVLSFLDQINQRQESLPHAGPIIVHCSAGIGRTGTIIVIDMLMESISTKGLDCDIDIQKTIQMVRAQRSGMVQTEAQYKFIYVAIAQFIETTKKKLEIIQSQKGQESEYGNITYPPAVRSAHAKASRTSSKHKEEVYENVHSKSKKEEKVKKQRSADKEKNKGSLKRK
Source text: The beads were then either subjected to in vitro PTPase assays or washed 3 times in Tris buffer then subjected to in vitro PTPase assays.

PRL-3 = molecular target: T2, PRL-3 (Homo sapiens, UniProt O75365); assay: In vitro PTPase assay, recombinant PRL-3; assay type: biochemical; conditions: 10 μg/ml, pre-incubation 30 or 60 minutes
T2 construct: GST (N); made in house; host or cells: DHSa (DH5a) bacteria
T2 sequence (O75365 whole entry): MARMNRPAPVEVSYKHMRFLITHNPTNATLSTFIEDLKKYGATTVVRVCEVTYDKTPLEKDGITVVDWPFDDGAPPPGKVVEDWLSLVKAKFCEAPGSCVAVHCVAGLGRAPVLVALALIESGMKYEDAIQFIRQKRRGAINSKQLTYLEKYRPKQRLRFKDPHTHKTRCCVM
Source text: Sodium stibogluconate, suramin, sodium orthovanadate and GST fusion protein of SHP-1 have been described previously (Pathak et al., J. Imumol. 167, 3391 (2001)). Meglumine antimonate was obtained from Aventis. cDNAs of human PRL-1, PRL-2 and PRL-3 coding region were derived by RT-PCR from H9 cells (Safai, et al., Lancet 1, 1438 (1984)) and inserted in frame into the pGEX vector. cDNA of PRL-1R86 was generated by recombinant DNA technique using PRL-1 cDNA as template following established procedures (Jiao, et al., Mol. Cell. Biol. 16, 6985 (1996)). […]
In vitro PTPase assays were used to determine the effects of compounds on recombinant PTPases, following established procedures using a synthetic phosphotyrosine peptide or DiFMUP as the substrate (Pathak et al., J. Imumol. 167, 3391 (2001)). […] PTPase activity of individual reactions was measured by adding 100 µL of malachite green solution (UBI) and then quantifying the amounts of free phosphate cleaved by the PTPase from the peptide substrate by spectrometry (OD660 nm). […] Relative PTPase activities were calculated based on the formula: (PTPase activity in the presence of an inhibitory compound/PTPase activity in the absence of the compound)× 100%. […]

TF-1 cells = assay: TF-1 cell proliferation assay; assay type: cell-based, human
Experimental: The murine hematopoietic cell line Baf3 was maintained in RPMI 1640 medium supplemented with 10% fetal calf serum (FCS) and murine IL-3 (20 units/ml) as described previously in Damen et al., J. Biol. Chem. 270, 23402 (1995). Human myeloid cell line TF-1 was maintained in RPMI 1640 supplemented with 10% FCS and 40 ng/ml of recombinant human GM-CSF as described previously in Thomassen et al., Clin. Immunol. 95, 85 (2000). For cell proliferation assays, cells were washed in 10% FCS medium twice, resuspended in 10% FCS medium, incubated at 37° C. for 16 hours, and then cultured at 37° C. in 10% FCS medium containing various amounts of cytokines, sodium stibogluconate, or potassium antimonyl tartrate for 3-6 days as indicated. The cell numbers in proliferation assays were determined by an MTT assay or by microscopic cell counting as indicated.

NB4 cells = assay: NB4 proliferation, MTT assay; assay type: cell-based, human; conditions: 12.5-400 μg/ml
Experimental: The NB4 cell line (Lanotte et al., Blood 77, 1080 (1991)) was a gift from Dr. Dan Lindner of the Cleveland Clinic Foundation. […] and U937 cell lines were purchased from American Type Culture Collection (Rockville, Md.). These human […] cell lines were maintained in RPMI 1640 medium supplemented with 10% fetal calf serum (FCS). For cell proliferation assays, cells were cultured at 37° C. in 10% FCS medium containing various amounts of sodium stibogluconate for 6 days. The cell numbers in the cultures were determined by an MTT assay as described previously in Mosmann, J. Immunol. Methods 65, 55 (1983).

Structure (SMILES): O.O.O.O.O.O.O.O.O.O=C([O-])[C@@H]1[O][Sb]2([O-])([O][Sb]34([OH])[O][C@H]([C@H](O)CO)[C@H]([O]3)[C@H](C(=O)[O-])[O]4)[O][C@H]([C@H](O)CO)[C@@H]1[O]2.[Na+].[Na+].[Na+] [sodium stibogluconate]
- phosphotyrosine levels of Jak2 and Stat5 relative to cells without drug ([1]; IL-3 stimulated, drug 10 minutes before, densitometry): about twice
- Jak2/Stat5 tyrosine phosphorylation by drug alone ([1]; no IL-3, 37 C 16 hours): failed to induce Jak2/Stat5 tyrosine phosphorylation
- inhibition of GST/SHP-1 after washing (SHP-1): not affected by washing
- inactivation of PRL-3 (PRL-3): nearly complete inactivation
- effect on GM-CSF-induced cell growth (TF-1 cells; 12.5-50 μg/ml): no negative effect on GM-CSF-induced cell growth
- GM-CSF-induced TF-1 proliferation (TF-1 cells; sodium stibogluconate 50 μg/ml, GM-CSF 5-40 ng/ml): augmented
- proliferation of NB4 cells (NB4 cells): markedly inhibited
